The numbers were not newly measured in patent US20120184751A1, “POLYMORPHIC FORM OF OLMESARTAN MEDOXOMIL” (RANBAXY LABORATORIES LIMITED, priority 2009, published 2012), which cites them from elsewhere.

The structures appear in SMILES notation.

The conditions of this data set: 75% relative humidity at 40° C. for one month.

For `CCCc1nc(C(C)(C)O)c(C(=O)OCc2oc(=O)oc2C)n1Cc1ccc(-c2ccccc2-c2nnn[nH]2)cc1` [amorphous olmesartan medoxomil, 2,3-dihydroxy-2-butenyl-4-(1-hydroxy-1-methylethyl)-2-propyl-1-[p-(o-1H-tetrazol-5-ylphenyl)benzyl]imidazole-5-carboxylate, cyclic 2,3-carbonate], the “solid-state stability / form conversion on storage” value was “converts into hydrated olmesartan medoxomil having crystalline appearance”.
